| Compound | melting point |
| --- | --- |
| Cn1cc([N+](=O)[O-])nc1C(=O)NN=Cc1cccc(Cl)c1 [Compound 21, N’-[(3-chlorophenyl)methylidene]-1-methyl-4-nitro-1H-imidazole-2-carbohydrazide] | 276 to 278 °C |
| Cn1cc([N+](=O)[O-])nc1C(=O)NN=Cc1ccccc1F [Compound 22, N’-[(2-fluorophenyl)methylidene]-1-methyl-4-nitro-1H-imidazole-2-carbohydrazide] | 214 to 217 °C |
| COc1ccccc1C=NNC(=O)c1nc([N+](=O)[O-])cn1C [Compound 23, N’-[(2-methoxyphenyl)methylidene]-1-methyl-4-nitro-1H-imidazole-2-carbohydrazide] | 205 to 208 °C |

Second part, the compound after the results:

| melting point | Compound |
| --- | --- |
| 208 to 210 °C | COc1cccc(C=NNC(=O)c2nc([N+](=O)[O-])cn2C)c1 [Compound 24, N’-[(3-methoxyphenyl)methylidene]-1-methyl-4-nitro-1H-imidazole-2-carbohydrazide] |
| 224 to 226 °C | COc1ccc(C=NNC(=O)c2nc([N+](=O)[O-])cn2C)cc1 [Compound 25, N’-[(4-methoxyphenyl)methylidene]-1-methyl-4-nitro-1H-imidazole-2-carbohydrazide] |
| 208 to 210 °C | Cn1cc([N+](=O)[O-])nc1C(=O)NN=Cc1ccc(C(F)(F)F)cc1 [Compound 26, 1-methyl-4-nitro-N’-[(4-trifluoromethylphenyl)methylidene]-1H-imidazole-2-carbohydrazide] |
| 208 to 210 °C | Cn1cc([N+](=O)[O-])nc1C(=O)NN=Cc1cccc(O)c1 [Compound 27, N’-[(3-hydroxyphenyl)methylidene]-1-methyl-4-nitro-1H-imidazole-2-carbohydrazide] |

From article PMC11243693, “Synthesis and Biological Evaluation of New Compounds with Nitroimidazole Moiety” (Molecules, 2024)
